Results taken from ChEMBL document CHEMBL1201862, “PubChem BioAssay data set” (2004).
Blank lines part the entries; values can stand above or below the molecule they belong to. Active and inactive are the calls of the source.

Legend:
[1] = target: Glyceraldehyde-3-phosphate dehydrogenase (Homo sapiens, UniProt P04406)
Prothrombin = Prothrombin (Homo sapiens, UniProt P00734); assay: Thrombin 1536 HTS Dose Response Confirmation. [Related pubchem assays: 1046 (Thrombin 1536 HTS; hits were confirmed in this assay)]; assay type: functional
Estrogen receptor = target: T1, Estrogen receptor (Homo sapiens, UniProt P03372);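 also: potency for inhibiting coactivator peptide recruitment to the receptor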
T1 sequence (P03372 whole entry): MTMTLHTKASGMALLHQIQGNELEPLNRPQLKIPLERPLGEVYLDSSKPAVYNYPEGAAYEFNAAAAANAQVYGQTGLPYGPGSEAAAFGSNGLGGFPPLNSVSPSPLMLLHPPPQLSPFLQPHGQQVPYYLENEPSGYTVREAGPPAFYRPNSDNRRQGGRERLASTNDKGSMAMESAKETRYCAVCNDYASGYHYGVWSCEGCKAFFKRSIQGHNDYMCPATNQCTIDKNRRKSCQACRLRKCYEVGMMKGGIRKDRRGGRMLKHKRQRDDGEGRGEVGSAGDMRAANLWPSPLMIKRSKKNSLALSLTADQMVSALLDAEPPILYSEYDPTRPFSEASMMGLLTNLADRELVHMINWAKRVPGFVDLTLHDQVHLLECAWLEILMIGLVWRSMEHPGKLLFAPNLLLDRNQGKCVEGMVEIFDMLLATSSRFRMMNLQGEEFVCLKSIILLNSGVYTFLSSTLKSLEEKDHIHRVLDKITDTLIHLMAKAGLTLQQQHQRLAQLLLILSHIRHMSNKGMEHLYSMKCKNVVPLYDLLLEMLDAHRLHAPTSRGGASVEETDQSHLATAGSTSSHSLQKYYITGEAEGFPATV

[2] = target: T2, Carboxy-terminal domain RNA polymerase II polypeptide A small phosphatase 1 (Homo sapiens, UniProt Q9GZU7); assay: inhibitors of CTDSP1, concentration-response testing, biochemical assay, absorbance-based, actives from ultra-high-throughput screening (AID 540297); assay type: functional
T2 sequence (Q9GZU7 whole entry): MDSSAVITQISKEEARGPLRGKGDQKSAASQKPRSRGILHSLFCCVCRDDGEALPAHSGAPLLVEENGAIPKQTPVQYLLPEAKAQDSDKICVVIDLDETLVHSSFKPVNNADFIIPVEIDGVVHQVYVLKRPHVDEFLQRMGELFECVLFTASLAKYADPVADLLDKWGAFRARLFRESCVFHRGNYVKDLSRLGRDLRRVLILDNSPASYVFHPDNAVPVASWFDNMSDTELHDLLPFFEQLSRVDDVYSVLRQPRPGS

[3] = growth suppression of PTEN-null colon cells, dose response, cell-based, HCT116 PTEN knockout (AID 1047); assay type: functional;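 also: HCT116 colon tumor cells with PTEN knocked out; cells exposed to compound for 60 hours before readout; potency for loss of cell viability measured by luminescence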
[4] = growth suppression of beta-catenin-knockout colon cells, dose response, cell-based, HCT116, human colon tumor (AID 1045); assay type: functional;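 also: HCT116 colon tumor cells with beta catenin knocked out; cells exposed to compound for 60 hours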
[5] = target: T3, Mannose-6-phosphate isomerase (Homo sapiens, UniProt P34949); assay: human PMI inhibitors, high substrate, primary screen, biochemical, fluorescence intensity, high mannose 6-phosphate (AID 1220)
T3 sequence (P34949 whole entry): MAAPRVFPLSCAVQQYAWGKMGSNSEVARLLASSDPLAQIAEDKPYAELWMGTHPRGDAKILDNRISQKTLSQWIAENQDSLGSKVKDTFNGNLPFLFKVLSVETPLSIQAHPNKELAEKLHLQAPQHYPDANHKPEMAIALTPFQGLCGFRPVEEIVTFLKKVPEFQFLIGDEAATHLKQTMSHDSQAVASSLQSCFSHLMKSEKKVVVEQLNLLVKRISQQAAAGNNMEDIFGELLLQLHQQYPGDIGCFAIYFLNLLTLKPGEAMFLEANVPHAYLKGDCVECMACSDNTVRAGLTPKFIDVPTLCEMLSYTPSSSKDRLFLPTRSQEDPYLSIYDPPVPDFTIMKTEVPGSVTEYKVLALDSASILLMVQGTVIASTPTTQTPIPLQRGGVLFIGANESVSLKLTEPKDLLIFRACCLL

[6] = Luminescence Cell-Based Dose Retest to Confirm Inhibitors of Cancer Stem Cells. [Related pubchem assays (depositor defined):AID2717, AID2721]; assay type: functional; conditions: Homo sapiens
[7] = target: T4, Heat shock factor protein 1 (Mus musculus, UniProt P38532); assay: HSF1 potentiators in luciferase reporter cells, confirmation, cell-based, NIH3T3, luminescence, dose retest (AID 435004); assay type: functional;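 also: stress induced by proteasome inhibitor MG132 added 30 min after compound; luciferase reporter driven by HSF1 response element in NIH3T3 cells; actives raise luminescence as potentiators of the MG132 stress response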
T4 sequence (P38532 whole entry): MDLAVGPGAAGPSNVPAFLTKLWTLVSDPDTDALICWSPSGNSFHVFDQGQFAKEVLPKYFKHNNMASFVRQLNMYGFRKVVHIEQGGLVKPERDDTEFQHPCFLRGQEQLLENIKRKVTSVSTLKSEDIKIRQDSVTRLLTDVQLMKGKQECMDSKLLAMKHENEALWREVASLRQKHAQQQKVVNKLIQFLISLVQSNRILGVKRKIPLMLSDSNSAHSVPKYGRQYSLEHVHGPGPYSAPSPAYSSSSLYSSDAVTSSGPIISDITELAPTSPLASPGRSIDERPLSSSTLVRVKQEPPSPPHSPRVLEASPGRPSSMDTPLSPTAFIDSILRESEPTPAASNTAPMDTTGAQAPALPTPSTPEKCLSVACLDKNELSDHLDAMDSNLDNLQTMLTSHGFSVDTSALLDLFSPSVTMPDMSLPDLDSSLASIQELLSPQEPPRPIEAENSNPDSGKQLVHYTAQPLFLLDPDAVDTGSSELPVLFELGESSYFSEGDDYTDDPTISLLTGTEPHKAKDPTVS

[8] = Shn3 3'UTR reporter inhibitors, dose response, cell-based, Clone20 osteoblasts, firefly luciferase, cherry-picked (AID 624132); assay type: functional;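 also: firefly luciferase luminescence from reporter carrying the Shn3 3'UTR in osteoblasts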
[9] = HepG2 cell cytotoxicity, dose response, cytotoxicity control for Shn3 inhibitor project, CellTiter-Glo, cherry-picked (AID 624134); assay type: functional, cell-based
[10] = control 3'UTR Renilla luciferase suppression, dose response, counter-screen for Shn3 inhibitor project, cell-based, Clone20-Shn3RL, cherry-picked (AID 624133); assay type: functional
Fatty acid synthase [11] = target: T5, Fatty acid synthase (Homo sapiens, UniProt P49327); assay: FAS thioesterase domain inhibitors, dose response, biochemical, endpoint fluorescence intensity, uHTS hits (AID 624327); assay type: functional;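 also: fluorescence from hydrolysis of an O-methyl fluorescein acyl ester substrate by the enzyme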
T5 sequence (P49327 whole entry, the tested form may be a part): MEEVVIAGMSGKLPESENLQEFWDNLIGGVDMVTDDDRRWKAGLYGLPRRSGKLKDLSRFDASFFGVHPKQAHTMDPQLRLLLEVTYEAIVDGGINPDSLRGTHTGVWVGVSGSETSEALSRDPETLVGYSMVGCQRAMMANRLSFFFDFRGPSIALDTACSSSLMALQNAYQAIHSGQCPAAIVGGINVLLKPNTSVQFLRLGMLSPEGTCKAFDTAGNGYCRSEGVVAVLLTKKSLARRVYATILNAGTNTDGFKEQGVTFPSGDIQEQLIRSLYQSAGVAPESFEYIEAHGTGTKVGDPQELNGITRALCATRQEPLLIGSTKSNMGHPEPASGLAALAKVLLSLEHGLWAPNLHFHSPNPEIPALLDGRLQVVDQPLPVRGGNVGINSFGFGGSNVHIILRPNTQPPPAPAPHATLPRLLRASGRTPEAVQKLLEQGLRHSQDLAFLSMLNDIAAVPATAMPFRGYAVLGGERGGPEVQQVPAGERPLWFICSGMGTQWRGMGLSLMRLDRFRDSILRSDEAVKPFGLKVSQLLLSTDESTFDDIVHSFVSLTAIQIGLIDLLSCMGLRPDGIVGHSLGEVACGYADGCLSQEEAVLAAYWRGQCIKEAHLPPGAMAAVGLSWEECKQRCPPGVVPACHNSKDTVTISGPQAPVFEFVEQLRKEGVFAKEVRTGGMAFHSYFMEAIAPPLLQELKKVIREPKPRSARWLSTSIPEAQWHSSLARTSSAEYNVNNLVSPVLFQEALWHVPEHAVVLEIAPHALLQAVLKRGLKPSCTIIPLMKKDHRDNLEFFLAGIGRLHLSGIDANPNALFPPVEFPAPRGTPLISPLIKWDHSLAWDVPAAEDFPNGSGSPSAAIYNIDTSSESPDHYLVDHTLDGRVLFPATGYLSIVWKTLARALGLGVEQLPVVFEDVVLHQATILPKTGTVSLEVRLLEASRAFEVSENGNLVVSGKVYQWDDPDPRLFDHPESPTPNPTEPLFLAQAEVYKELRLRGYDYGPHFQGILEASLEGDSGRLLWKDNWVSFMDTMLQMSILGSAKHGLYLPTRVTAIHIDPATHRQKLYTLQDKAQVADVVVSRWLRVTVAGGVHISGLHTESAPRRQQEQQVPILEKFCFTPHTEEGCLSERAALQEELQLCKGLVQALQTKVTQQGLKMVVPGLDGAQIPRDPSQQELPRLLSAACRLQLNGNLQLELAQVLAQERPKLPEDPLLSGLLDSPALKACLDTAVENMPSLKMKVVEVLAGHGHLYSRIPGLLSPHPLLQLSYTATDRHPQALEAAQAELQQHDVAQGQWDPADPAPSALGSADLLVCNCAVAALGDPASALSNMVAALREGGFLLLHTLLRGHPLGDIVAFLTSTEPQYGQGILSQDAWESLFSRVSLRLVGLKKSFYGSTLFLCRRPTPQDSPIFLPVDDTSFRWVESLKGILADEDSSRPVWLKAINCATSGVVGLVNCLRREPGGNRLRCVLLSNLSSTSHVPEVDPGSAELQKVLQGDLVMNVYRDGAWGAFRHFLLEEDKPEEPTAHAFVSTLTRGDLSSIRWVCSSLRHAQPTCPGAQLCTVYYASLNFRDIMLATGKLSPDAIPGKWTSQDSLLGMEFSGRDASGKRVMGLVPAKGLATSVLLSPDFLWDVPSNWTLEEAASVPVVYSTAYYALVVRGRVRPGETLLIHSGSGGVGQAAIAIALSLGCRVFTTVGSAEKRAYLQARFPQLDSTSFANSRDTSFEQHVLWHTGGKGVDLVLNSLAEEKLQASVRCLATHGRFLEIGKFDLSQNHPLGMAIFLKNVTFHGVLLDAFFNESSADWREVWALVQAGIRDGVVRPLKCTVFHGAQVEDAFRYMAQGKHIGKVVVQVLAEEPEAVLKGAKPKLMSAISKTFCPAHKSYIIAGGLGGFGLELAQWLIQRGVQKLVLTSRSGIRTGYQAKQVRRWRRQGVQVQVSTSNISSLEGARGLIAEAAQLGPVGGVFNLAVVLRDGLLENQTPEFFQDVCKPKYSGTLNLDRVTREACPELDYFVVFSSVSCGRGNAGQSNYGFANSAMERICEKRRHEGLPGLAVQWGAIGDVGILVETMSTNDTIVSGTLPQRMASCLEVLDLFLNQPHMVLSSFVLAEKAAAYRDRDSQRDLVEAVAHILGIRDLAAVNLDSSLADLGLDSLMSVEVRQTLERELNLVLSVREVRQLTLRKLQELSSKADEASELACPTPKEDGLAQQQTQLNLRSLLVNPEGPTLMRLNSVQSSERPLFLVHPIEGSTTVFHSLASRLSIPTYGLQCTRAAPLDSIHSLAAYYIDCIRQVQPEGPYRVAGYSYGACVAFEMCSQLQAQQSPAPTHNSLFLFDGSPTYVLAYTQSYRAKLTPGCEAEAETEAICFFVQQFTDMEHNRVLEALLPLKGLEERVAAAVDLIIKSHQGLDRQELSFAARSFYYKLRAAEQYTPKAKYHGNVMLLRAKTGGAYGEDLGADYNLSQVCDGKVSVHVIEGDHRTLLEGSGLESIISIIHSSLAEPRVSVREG

Fatty acid synthase [12] = target: T5, Fatty acid synthase; assay: FAS thioesterase domain inhibitors, dose response, biochemical, kinetic fluorescence intensity (AID 624326); assay type: functional;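 also: rate of fluorescence rise from hydrolysis of a fluorogenic O-methyl fluorescein ester substrate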
[13] = cytotoxicity in HPDE-C7 cells, cell-based, fluorescence, HTS (AID 430); assay type: functional; conditions: Homo sapiens
[14] = cytotoxicity in KRAS-transformed pancreatic duct cells, primary screen, cell-based, fluorescence, HTS (AID 431); assay type: functional; conditions: Homo sapiens;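 also: cell line used: HPDE-C7K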
[15] = inhibitors of intracellular T. cruzi replication, confirmation, NIH3T3 host cells, beta-gal luminescence (AID 2044); assay type: functional, cell-based;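 also: intracellular parasites grown in NIH/3T3 mouse fibroblasts as host cells; luminescent beta-galactosidase reporter signal from transgenic T. cruzi replicating inside host cells; inhibitors lower the luminescence signal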
[16] = cytotoxicity toward NIH3T3 fibroblasts, dose response, counter-screen, cell-based, ATP luminescence, mouse fibroblasts (AID 2010); assay type: functional;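 also: cells exposed to compound for about 90 hours before reading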

Chain of Glyceraldehyde-3-phosphate dehydrogenase (P04406 whole entry): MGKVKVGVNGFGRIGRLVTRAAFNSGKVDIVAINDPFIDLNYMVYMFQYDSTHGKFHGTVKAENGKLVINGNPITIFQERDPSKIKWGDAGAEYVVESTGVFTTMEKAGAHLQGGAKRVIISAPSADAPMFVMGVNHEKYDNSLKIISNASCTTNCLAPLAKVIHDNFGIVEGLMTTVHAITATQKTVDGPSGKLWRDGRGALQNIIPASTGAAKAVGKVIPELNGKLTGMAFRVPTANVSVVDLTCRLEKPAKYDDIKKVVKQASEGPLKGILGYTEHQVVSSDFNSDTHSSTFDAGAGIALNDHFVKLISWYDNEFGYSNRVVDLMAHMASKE

SMILES: Nc1nnc(SCCCC(=O)c2ccccc2)s1
- IC50 (Prothrombin): > 50 µM (not active)

SMILES: O=[N+]([O-])c1c(NCCCO)cc(Sc2ccc(Cl)cc2)c2nonc12
- EC50 [3]: 13.5 µM (active)
- EC50 [4]: 9.46 µM (active)
- IC50 [5]: > 50 µM (not active)
- AC50 [6]: 4.49 µM (active)
- EC50 [7]: 4.81 µM (active)
- AC50 [8]: 5.63 µM (active)
- AC50 [9]: 25.4 µM (active)
- AC50 [10]: 12.7 µM (active)
- IC50 (Fatty acid synthase [11]): 11.5 µM (active)
- IC50 (Fatty acid synthase [12]): 6.69 µM (active)

SMILES: CC(=O)c1ccc(S(=O)(=O)Nc2ccc(-c3cn4c(n3)SCC4)cc2)cc1
- IC50 (Prothrombin): > 50 µM (not active)

SMILES: CCOC(=O)C1=C(N)c2ccccc2CC1C(C)C (configuration not stated)
- EC50 [13]: > 20 µM (not active)
- EC50 [14]: > 20 µM (not active)

SMILES: Cc1ccc2c(CN3CCN(Cc4ccccc4)CC3)cc(=O)oc2c1
- EC50 [15]: < 0.1 µM (active)
- EC50 [16]: > 60 µM (not active)
- EC50 (cells): 0.049 µM (active)

SMILES: CS(=O)(=O)c1ccc2nc(NC(=O)CCC(=O)c3cccs3)sc2c1
- IC50 (Estrogen receptor): 7.11 µM (active)

Further lines, results first:

- IC50 [1]: > 100 µM (not active)
SMILES: COc1cc(/C=C2/SC(=S)NC2=O)cc(Cl)c1OCc1cccc2ccccc12

- IC50 (Estrogen receptor): 25.2 µM (active)
- IC50 [2]: 17.8 µM (active)
SMILES: Cn1c(SCc2cc(=O)n3cc(Br)ccc3n2)nnc1C1COc2ccccc2O1 (configuration not stated)

- IC50 [5]: 23.3 µM (active)
SMILES: Oc1ccc2ccccc2c1/C=N\C1CCCCC1
